Reference: PMC9352670 (2022)

Assays:
Assay in all cases: microscale thermophoresis
[1] = system: Dm-LS-2 (DNA, aptamer, HFNAP: side-chain on 5' nucleobase of each coding trinucleotide, positions 19,22,25,...,61 (codon key Figure 1B)) GAAAGCAGGACTGGAGATCCGCGCCGCTTTTATCCCTGTCCCCGCTACCCGTATCCCTCCTTGCAGACCGAACTAGAGCTT; settings: 5 mM KCl, 1 mM MgCl2, 1 mM CaCl2 added; HBS-P+ buffer, 25 °C
[2] = system: Dm-HS-3 (DNA, aptamer, HFNAP: side-chain on 5' nucleobase of each coding trinucleotide, positions 19,22,25,...,61 (codon key Figure 1B)) GAAAGCAGGACTGGAGATCGATTATTGTGATTTTGATCTCCTCCATATCCCCTTCCCTACTCGCAGACCGAACTAGAGCTT; settings: 5 mM KCl, 1 mM MgCl2, 1 mM CaCl2 added; HBS-P+ buffer, 25 °C
[3] = system: Dm-HS-4 (DNA, aptamer, HFNAP: side-chain on 5' nucleobase of each coding trinucleotide, positions 19,22,25,...,61 (codon key Figure 1B)) GAAAGCAGGACTGGAGATCGATTCTGGTGCTGTTGATCTCCGCCATTGTGCTCCTACCCTTCGCAGACCGAACTAGAGCTT; settings: 5 mM KCl, 1 mM MgCl2, 1 mM CaCl2 added; HBS-P+ buffer, 25 °C
[4] = system: Dm-HS-8 (DNA, aptamer, HFNAP: side-chain on 5' nucleobase of each coding trinucleotide, positions 19,22,25,...,61 (codon key Figure 1B)) GAAAGCAGGACTGGAGATCGATTGCAGTTACGTCTCCCCTGCCCACCTTATTGCCATTCATAACAGACCGAACTAGAGCTT; settings: 5 mM KCl, 1 mM MgCl2, 1 mM CaCl2 added; HBS-P+ buffer, 25 °C
[5] = system: Dm-HS-9 (DNA, aptamer, HFNAP: side-chain on 5' nucleobase of each coding trinucleotide, positions 19,22,25,...,61 (codon key Figure 1B)) GAAAGCAGGACTGGAGATCGATTATTGTGATTTTGATCTCCCCCATATCCCCTTCCCTACTCGCAGACCGAACTAGAGCTT; settings: 5 mM KCl, 1 mM MgCl2, 1 mM CaCl2 added; HBS-P+ buffer, 25 °C
[6] = system: Dm-HS-10 (DNA, aptamer, HFNAP: side-chain on 5' nucleobase of each coding trinucleotide, positions 19,22,25,...,61 (codon key Figure 1B)) GAAAGCAGGACTGGAGATCCTTCGCATCGGCTTTCTCCCTGTCACCCCTGTTCCCCTTGACCGCAGACCGAACTAGAGCTT; settings: 5 mM KCl, 1 mM MgCl2, 1 mM CaCl2 added; HBS-P+ buffer, 25 °C
[7] = system: Dm-CVAE-without-selection-2 (DNA, aptamer, HFNAP: side-chain on 5' nucleobase of each coding trinucleotide, positions 19,22,25,...,61 (codon key Figure 1B)) GAAAGCAGGACTGGAGATTCGTTACCGCTGTTGCTCTCTTCTCAGTTGTGCTCCTTTTCCCCCCAGACCGAACTAGAGCTT; settings: 5 mM KCl, 1 mM MgCl2, 1 mM CaCl2 added; HBS-P+ buffer, 25 °C
[8] = system: Dm-CCS-1 (DNA, aptamer, HFNAP: side-chain on 5' nucleobase of each coding trinucleotide, positions 19,22,25,...,61 (codon key Figure 1B)) GAAAGCAGGACTGGAGATCCTTAATGGCAGCTCCAGCCCTAACCCTGCTGCTGCCTCTGCTGTCAGACCGAACTAGAGCTT; settings: 5 mM KCl, 1 mM MgCl2, 1 mM CaCl2 added; HBS-P+ buffer, 25 °C
[9] = system: Dm-reference-based-random-after-selection-2 (DNA, other, HFNAP: side-chain on 5' nucleobase of each coding trinucleotide, positions 19,22,25,...,61 (codon key Figure 1B)) GAAAGCAGGACTGGAGATTTGTGCCCCTGATGCCCATGGTCCCTCCGCTGCTAACGTTTGCCTCAGACCGAACTAGAGCTT; settings: 5 mM KCl, 1 mM MgCl2, 1 mM CaCl2 added; HBS-P+ buffer, 25 °C
[10] = system: Dm-reference-based-random-after-selection-3 (DNA, other, HFNAP: side-chain on 5' nucleobase of each coding trinucleotide, positions 19,22,25,...,61 (codon key Figure 1B)) GAAAGCAGGACTGGAGATTGCTCTTGCCCGCCCTGTTGCTATCATCCCCCACCTTAGTACCCCCAGACCGAACTAGAGCTT; settings: 5 mM KCl, 1 mM MgCl2, 1 mM CaCl2 added; HBS-P+ buffer, 25 °C
[11] = system: Dm-HS-3 ∆ s.c. (DNA, aptamer, none (no side-chains)) GAAAGCAGGACTGGAGATCGATTATTGTGATTTTGATCTCCTCCATATCCCCTTCCCTACTCGCAGACCGAACTAGAGCTT; settings: 5 mM KCl, 1 mM MgCl2, 1 mM CaCl2 added; HBS-P+ buffer, 25 °C
[12] = system: Dm-HS-8 ∆ s.c. (DNA, aptamer, none (no side-chains)) GAAAGCAGGACTGGAGATCGATTGCAGTTACGTCTCCCCTGCCCACCTTATTGCCATTCATAACAGACCGAACTAGAGCTT; settings: 5 mM KCl, 1 mM MgCl2, 1 mM CaCl2 added; HBS-P+ buffer, 25 °C
[13] = system: Dm-HS-1 TGC ∆ s.c. (DNA, aptamer, no side-chain at 28 and 49 (codons 4 and 11 TGC, alcohol 2x); others as HFNAP: fluorophenyl at 19; allylamine at 22, 25, 37; alcohol at 34; phenol at 31, 46; cyclopentyl at 40; cyclopropyl at 43, 58; imidazole at 52, 55, 61) GAAAGCAGGACTGGAGATCGATTCTGGTGCTGTTGATCTCCGCCATTGTGCTCCTACCCTTCACAGACCGAACTAGAGCTT; settings: 5 mM KCl, 1 mM MgCl2, 1 mM CaCl2 added to HBS-P+; HBS-P+ buffer, 25 °C
[14] = system: Dm-HS-1 TTG ∆ s.c. (DNA, aptamer, no side-chain at 46 (codon 10 TTG); others as HFNAP: fluorophenyl at 19; allylamine at 22, 25, 37; alcohol at 28, 34, 49; phenol at 31; cyclopentyl at 40; cyclopropyl at 43, 58; imidazole at 52, 55, 61) GAAAGCAGGACTGGAGATCGATTCTGGTGCTGTTGATCTCCGCCATTGTGCTCCTACCCTTCACAGACCGAACTAGAGCTT; settings: 5 mM KCl, 1 mM MgCl2, 1 mM CaCl2 added to HBS-P+; HBS-P+ buffer, 25 °C
[15] = system: Dm-HS-1 TAC ∆ s.c. (DNA, aptamer, no side-chain at 55 (codon 13 TAC); others as HFNAP: fluorophenyl at 19; allylamine at 22, 25, 37; alcohol at 28, 34, 49; phenol at 31, 46; cyclopentyl at 40; cyclopropyl at 43, 58; imidazole at 52, 61) GAAAGCAGGACTGGAGATCGATTCTGGTGCTGTTGATCTCCGCCATTGTGCTCCTACCCTTCACAGACCGAACTAGAGCTT; settings: 5 mM KCl, 1 mM MgCl2, 1 mM CaCl2 added to HBS-P+; HBS-P+ buffer, 25 °C

SMILES: COc1cccc2c1C(=O)c1c(O)c3c(c(O)c1C2=O)C[C@@](O)(C(C)=O)C[C@@H]3O[C@H]1C[C@H](N)[C@H](O)[C@H](C)O1
- Kd [1]: 0.97 ± 0.06 µM
- Kd [2]: 4.78 ± 0.95 nM
- Kd [3]: 2.05 ± 0.65 nM
- Kd [4]: 32.26 ± 8.9 nM
- Kd [5]: 1.13 ± 0.45 nM
- Kd [6]: 64.68 ± 3.9 nM
- Kd [7]: 15.5 ± 1.3 nM
- Kd [8]: 16.7 ± 6.0 nM
- Kd [9]: 114.4 ± 7.4 µM
- Kd [10]: 176.5 ± 8.0 µM
- Kd ∆ side-chains [11]: 4.45 ± 0.28 µM
- Kd ∆ side-chains [12]: 4.84 ± 0.26 µM
- Kd [13]: 20.3 ± 4.4 nM
- Kd [14]: 32.6 ± 5.0 nM
- Kd [15]: 21.7 ± 2.1 nM
